Experimental data reported in US20250032506A1, “GLUCOCORTICOID RECEPTOR BLOCKADE WITH MIFEPRISTONE TO SENSITIZE PANCREATIC CANCER TO IMMUNOTHERAPY” (BOARD OF REGENTS, THE UNIVERSITY OF TEXAS SYSTEM, priority 2021, published 2025).

Legend:
[1] = system: orthotopic HY24409 tumors; assay: Flow cytometric analysis and multiplex immunofluorescent staining of tumors or spleens from mice treated with mifepristone and dual ICB; type: in vivo, mouse
Procedure: Cancer Discov 10, 1374-1387 (2020). […] CyTOF data were analyzed by FlowJo and Cytobank.
Immunity 54, 1561-1577 e1567 (2021).

[2] = system: orthotopic HY24409 tumors; assay: Immune checkpoint blockade experiments in male C57BL/6 mice bearing orthotopic HY24409 tumors; type: in vivo, mouse; settings: compared with the vehicle+IgG control
Procedure: (§1) Orthotopic pancreatic tumor size was determined by MRI. Subcutaneous tumor size was measured with a caliper. […] Animal body weight was measured throughout the study.

BXPC-3 cells = assay: qPCR and immunoblotting of PD-L1 and MHC-I in BXPC-3 cells; type: cell-based, human; settings: MIFE 20 μM (qPCR) or indicated doses (immunoblot), 72 h
Description: The male PDAC cell lines HY24409 and HY24160 and the female PDAC cell line HY19636 were established from KPC mice (p48-Cre; Kras^LSL-G12D/+; Trp53^loxP/+) that were backcrossed to a C57BL/6 background (purity: ˜ 98%). (See Bardeesy, N., et al. supra). The human PDAC cell lines SU86.86 ([…]), SW1990 ([…]), BXPC-3 ([…]), Miapaca-2 ([…]), Capan-1 ([…]), ASPC-1 ([…]), Hs766T ([…]), Colo357/FG ([…]), L3.6PL ([…]), Panc28 ([…]), Capan-2 ([…]), CF-Pac-1 ([…]), Panc3 (sex unknown), Panc1 ([…]), Panc48 (sex unknown), and HPAC ([…]) were from Mien-Chie Hung's lab stock. The HY24409, HY24160, HY19636, SU86.86, SW1990, and Hs766T cell lines were cultured in RPMI 1640 (Corning, 10-041-CV) supplemented with 10% fetal bovine serum (FBS) (Gibco, 10438-034) and 1% penicillin/streptomycin (Sigma, P4333). The BXPC-3, Miapaca-2, Capan-1, ASPC-1, Colo357/FG, L3.6PL, Panc28, Capan-2, CF-Pac-1, Panc3, Panc1, Panc48, and HPAC cell lines were cultured in DMEM/F-12 (Corning, 10-092-CV) supplemented with 10% FBS and 1% penicillin/streptomycin. Cells were grown in a humidified incubator with 5% CO2 at 37° C., and low-passage stocks were maintained in a centralized lab cell bank. Short tandem repeat profiling and mycoplasma tests were done by the Cytogenetics and Cell Authentication Core at MD Anderson Cancer Center. […]

[3] = system: orthotopic HY19636 tumors; assay: Female C57BL/6 mice bearing orthotopic HY19636 tumors; type: in vivo, mouse
Procedure: as §1

SU86.86 cells = assay: qPCR, immunoblotting and flow cytometry of PD-L1 and MHC-I pathway expression in SU86.86 cells; type: cell-based, human
Procedure: (See Bardeesy, N., et al. supra). The human PDAC cell lines SU86.86 ([…]), SW1990 ([…]), BXPC-3 ([…]), Miapaca-2 ([…]), Capan-1 ([…]), ASPC-1 ([…]), Hs766T ([…]), Colo357/FG ([…]), L3.6PL ([…]), Panc28 ([…]), Capan-2 ([…]), CF-Pac-1 ([…]), Panc3 (sex unknown), Panc1 ([…]), Panc48 (sex unknown), and HPAC ([…]) were from Mien-Chie Hung's lab stock. […] The BXPC-3, Miapaca-2, Capan-1, ASPC-1, Colo357/FG, L3.6PL, Panc28, Capan-2, CF-Pac-1, Panc3, Panc1, Panc48, and HPAC cell lines were cultured in DMEM/F-12 (Corning, 10-092-CV) supplemented with 10% FBS and 1% penicillin/streptomycin. Cells were grown in a humidified incubator with 5% CO2 at 37° C., and low-passage stocks were maintained in a centralized lab cell bank. Short tandem repeat profiling and mycoplasma tests were done by the Cytogenetics and Cell Authentication Core at MD Anderson Cancer Center.
Membranes were blocked with 10% non-fat milk in TBST and incubated with the primary antibody at 4° C. overnight, followed by incubation with the secondary antibody conjugated with horseradish peroxidase (HRP).

GR = GR (Homo sapiens, UniProt P04150); settings: ChIP-qPCR; co-treatment with mifepristone 100 nM and dexamethasone 100 nM, 30 min; SU86.86
Chain of GR (P04150 whole entry, the tested form may be a part): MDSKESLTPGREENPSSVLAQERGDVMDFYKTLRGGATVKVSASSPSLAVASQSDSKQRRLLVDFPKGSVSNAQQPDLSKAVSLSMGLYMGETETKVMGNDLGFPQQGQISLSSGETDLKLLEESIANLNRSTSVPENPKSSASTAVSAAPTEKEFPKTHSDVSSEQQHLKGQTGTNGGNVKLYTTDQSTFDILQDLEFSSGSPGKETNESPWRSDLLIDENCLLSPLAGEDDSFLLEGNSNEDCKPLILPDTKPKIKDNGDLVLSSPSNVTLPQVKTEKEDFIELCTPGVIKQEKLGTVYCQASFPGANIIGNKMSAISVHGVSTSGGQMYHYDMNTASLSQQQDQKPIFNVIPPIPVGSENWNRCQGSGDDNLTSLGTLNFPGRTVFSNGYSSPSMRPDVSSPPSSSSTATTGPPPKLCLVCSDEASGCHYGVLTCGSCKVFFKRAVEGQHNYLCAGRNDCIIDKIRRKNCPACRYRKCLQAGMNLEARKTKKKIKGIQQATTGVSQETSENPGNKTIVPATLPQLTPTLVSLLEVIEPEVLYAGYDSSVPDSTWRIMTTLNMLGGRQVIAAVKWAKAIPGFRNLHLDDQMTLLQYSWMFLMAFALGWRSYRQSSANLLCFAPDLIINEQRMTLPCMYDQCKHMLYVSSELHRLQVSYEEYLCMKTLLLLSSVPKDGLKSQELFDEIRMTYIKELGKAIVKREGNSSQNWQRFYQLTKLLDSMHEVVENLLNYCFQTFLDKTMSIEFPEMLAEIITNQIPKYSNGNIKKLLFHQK
Procedure: SU86.86 cells were grown to 40% confluence in 15-cm dishes in RPMI with 10% FBS, followed by 72-hour incubation in phenol red-free RPMI supplemented with 5% charcoal-stripped FBS. […] Cells were cross-linked with 1% formaldehyde, quenched with glycine, and harvested. After cell lysis with ChIP lysis buffer, cells were digested with Micrococcal Nuclease and sonicated to achieve the majority of DNA fragments between 200 bp and 500 bp. […] Chromatin was eluted from GR ChIP following the manufacturer's protocol.

[4] = relative to the control group, either with or without co-treatment with dual ICB

SMILES: CC#C[C@]1(O)CC[C@H]2[C@@H]3CCC4=CC(=O)CCC4=C3[C@@H](c3ccc(N(C)C)cc3)C[C@@]21C [mifepristone]
- tumor infiltration by CD8+ T cells and granzyme B+ CTLs ([1]; flow cytometric analysis and multiplex immunofluorescent staining, HY24409 tumors): increase
- cell-surface MHC-I (H-2K^b) and B2M in tumor cells [1, 4]: increase
- cell-surface PD-L1 in tumor cells [1, 4]: decrease
- survival [2]: did not lead to a significant improvement in survival
- MHC-I at both mRNA and protein levels (BXPC-3 cells): significantly upregulated
- PD-L1 at both mRNA and protein levels (BXPC-3 cells): downregulated
- body weight [3]: without reducing body weight
- tumor growth [3]: markedly inhibited tumor growth
- sensitivity of tumors to dual ICB ([3]; mifepristone with dual ICB): rendered sensitivity to dual ICB
- PD-L1 protein (SU86.86 cells; Western blot and flow cytometric analysis, MIFE 72 h): downregulated
- MHC-I and B2M proteins (SU86.86 cells; Western blot and flow cytometry, MIFE 72 h): upregulation
- mRNA levels of components in the MHC-I pathway, including HLA-A, HLA-B, HLA-C, B2M, SEC61B, and SEC61G (SU86.86 cells; qPCR, MIFE 20 μM, 72 h): increased
- mRNA levels of immune checkpoint ligands, including PD-L1, CD47, TDO, and SIGLEC15 (SU86.86 cells; qPCR, MIFE 20 μM, 72 h): decreased
- dexamethasone-induced binding of promoter sites to GR (GR): reversed
